Reference: patent publication US5922557A, “System for stably expressing a high-affinity camp phosphodiesterase and use thereof” (Merck & Co., Inc., priority 1998, dated 1999)
pEC50, pIC50: −log10 of the molar value. Entries after “also recorded” stand apart in the source; their conditions may differ. Read-outs that look alike come from different tables or passages of the source.

Key:
FLAG PDE IVAmet330 [1] = molecular target: T1, FLAG PDE IVAmet330 (Homo sapiens, UniProt P27815, M723I); format: binding; parameters: made in house; details: 0.2 to 100 nM [^3 H](R)-rolipram
Target sequence in this assay (P27815 332-886 M723I): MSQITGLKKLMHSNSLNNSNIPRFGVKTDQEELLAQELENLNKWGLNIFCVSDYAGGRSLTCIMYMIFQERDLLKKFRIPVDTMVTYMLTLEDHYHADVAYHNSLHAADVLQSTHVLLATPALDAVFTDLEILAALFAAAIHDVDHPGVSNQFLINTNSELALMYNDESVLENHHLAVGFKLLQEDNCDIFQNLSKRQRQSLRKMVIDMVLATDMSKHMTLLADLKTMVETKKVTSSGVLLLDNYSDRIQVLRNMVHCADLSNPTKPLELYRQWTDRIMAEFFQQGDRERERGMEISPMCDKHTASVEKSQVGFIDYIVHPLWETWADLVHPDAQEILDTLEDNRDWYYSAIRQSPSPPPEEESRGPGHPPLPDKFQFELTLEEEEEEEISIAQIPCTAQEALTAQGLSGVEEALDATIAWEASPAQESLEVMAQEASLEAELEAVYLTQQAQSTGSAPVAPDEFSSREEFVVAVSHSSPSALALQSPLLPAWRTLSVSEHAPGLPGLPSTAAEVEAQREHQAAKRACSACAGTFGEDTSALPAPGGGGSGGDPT
Experimental: CHO-K1 cells stably expressing epitope FLAG PDE IV constructs were lysed by sonication for 10 secs at a power setting of 50% (Braunsonic Model 2000) in an ice cold solution containing 50 mM Tris, pH 7.5; 1 mM EDTA; protease inhibitor cocktail (Boehringer, Montreal, QUE). The soluble and particulate fractions of the cell were obtained by centrifuging the sonicate for 90 min at 100,000×g at 40° C. […] The affinity matrix was washed with column buffer until all unbound protein was eluted from the column as determined with a UV-2 flow cell. Bound material was eluted with column buffer containing 0.5 mg/ml. FLAG peptide at a flow rate of 2 ml/min.
The filters were quickly washed with an ice-cold solution of 50 mM Tris; pH 7.5. […] Non-specific binding amounted to less than 5% of the total measured binding activity.

[2] = system: high-affinity rolipram binding site, rat forebrain membranes; details: cited from earlier work
[3] = system: full-length PDE Iva / HPDE IV; details: cited from earlier work
cAMP PDE = details: membraneous and cytosolic fractions, rat brain; cited from earlier work
PDE IVh6.1 = PDE IVh6.1 in S. cerevisiae or COS-1 cells; cited from earlier work
[4] = system: constitutive phosphodiesterase of control cells (VH2); assay: Constitutive phosphodiesterase activity in control cells (VH2); format: biochemical; details: control cells (VH2) in selection media
Experimental: (§1) CHO-K1 cells were lysed by sonication for 10 secs at a power setting of 50% (BRAUNSONIC Model 2000) in an ice cold solution containing 50 mM Tris, pH 7.5; 1 mM EDTA; and 200 μM mercaptoethanol. The soluble and particulate fractions of the cell were obtained by centrifuging the sonicate for 90 min at 100,000×g at 4° C. PDE activity was measured in a solution containing 50 mM Tris, pH 7.5; 10 mM MgCl2 ; 1 mM EDTA; and 100 nM (or indicated) 3H-cAMP (100 ml final volume) in the presence of varying concentrations of inhibitor. The reaction mixture containing enzyme was incubated for 10 min at 30° C. in 96-well View Plates (PACKARD), and terminated by the addition of 50 μl Phosphodiesterase Scintillation Proximity Assay (SPA) Beads ([sequence]) containing 18 mM ZnSO4. The amount of 3H-cAMP hydrolysis was determined by counting the plates in a WALLAC 1450 μBeta LSC counter.

FLAG PDE IVAmet330 [5] = system: FLAG PDE IVAmet330
Experimental: as §1
(§2) CHO-K1 cells stably expressing epitope FLAG PDE IV constructs were lysed by sonication for 10 secs at a power setting of 50% (Braunsonic Model 2000) in an ice cold solution containing 50 mM Tris, pH 7.5; 1 mM EDTA; protease inhibitor cocktail (Boehringer, Montreal, QUE). The soluble and particulate fractions of the cell were obtained by centrifuging the sonicate for 90 min at 100,000×g at 40° C.

patients = details: clinic; cited from earlier work
[6] = system: catalytic portion of PDE IV; details: UCR1 and UCR2 deleted; cited from earlier work
[7] = system: PDE IVA enzyme and various deletion mutants; details: cited from earlier work
human neutrophils = assay: Whole-cell cAMP elevation in human neutrophils; format: cell-based; details: vs RS 14203 and (R)-rolipram; data not presented
[8] = system: CHO-K1 cells stably expressing rhPDE IVa; assay: cells; format: cell-based
Experimental: Levels of cAMP were measured in CHO-K1 cells stably expressing PDE IVa enzyme as outlined in Materials and Methods.
CHO-K1 cells were plated at a density of 10^6 cells/175 cm^2 containing complete media with 500 μg/ml hygromycin. The flasks were maintained in an incubator at 37° C. with 5.0% CO2 for 72 hr. The media was changed and the cells were allowed to grow overnight. The cells were washed and dissociated from the plate with PBS containing 0.5 mM EDTA. Cellular cAMP content was measured by centrifuging the cell suspension at 150 g×10 min and resuspending the cells in a Hanks buffered salt solution at a density of 0.2×10^6 cells/ml. The cells were preincubated at room temperature for 15 min and then incubated with 10 μM prostaglandin I2 (PGI2) and the indicated compound for an additional 10 min. Basal cAMP levels were determined by incubating the cells in 0.1% DMSO. The incubations were terminated by the addition of HCl (0.1N final) and the cells measured for cAMP.
Determinations of whole-cell cAMP content were performed by incubating 100 μl reconstituted rabbit anti-succinyl cAMP serum with 100 μl of the whole-cell reaction or known cAMP standard and 30 pmol of 125I-cAMP TME in a […]™ well (300 μl final volume) at room temperature for 18 h. Total cpm (Bo) was determined in the absence of sample or cAMP standard. The reaction mixture was then aspirated out of the well, and individual wells were counted in a BECKMAN LS 6000SC with the window open from 10-999 for 1 min. The data were expressed as %B/Bo=[(standard or sample cpm--non-specific cpm)/(Bo cpm-non-specific cpm)]×100. Non-specific cpm were determined by incubating only the 125I-cAMP TME with assay buffer (50 mM acetate; pH 5.8) in the ScintiStrip™ well. All determinations were performed in triplicate.

HL-60 cells = assay: Whole-cell cAMP elevation in HL-60 cells; format: cell-based; details: vs RS 14203 and (R)-rolipram; data not presented
[9] = system: PKA in CHO-K1 cells stably expressing PDE IVa; assay: Whole-cell cAMP dependent protein kinase (PKA) activity ratio; format: cell-based; details: with 1 μM PGI2, read-out: apparent EC50 to activate PKA
Experimental: PKA activity ratios were determined as the amount of ^32 P transferred to histone F2B in the presence and absence of cAMP as described in Materials and Methods. Data points represent the fractional PKA activation by incubating cells with the indicated concentrations of inhibitor and […]. Experiments were performed in triplicate. n=3 experiments±SD.
CHO-K1 cells were grown and resuspended as described above except that the Hank's buffer was replaced by a solution containing 0.25M sucrose; 10 mM Tris, pH 7.5; and 0.5 mM EDTA. The cells were preincubated and incubated with 1 μM PGI2 and the indicated compounds at room temperature as described above. The incubations were terminated by the addition of 0.05% Triton X-100 (final) and incubating the cells for 5 min on ice. […] This mixture (final volume 220 μl) was incubated in a waterbath for 30 min at 35° C. and terminated by adding 5 ml of ice cold 5% TCA. The precipatated protein was applied to a Whatman GF/B filter under vacuum and the filter was subsequently washed with 3×5 ml ice cold TCA solution. The amount of -32P incorporation was measured by placing the filters in Aquasol and counting in a BECKMAN LSC 5000. Basal cAMP independent protein kinase activity was determined by the inclusion of 1 μM Protein Kinase A Peptide Inhibitor (19) in the reaction mixture. Maximal cAMP protein kinase activity was determined in the presence of 10 μM cAMP. All determinations were performed in triplicate and activity ratios were calculated as the [(kinase activity in the presence of PDE inhibitor minus cAMP independent kinase activity)/(maximal cAMP kinase activity minus cAMP independent kinase activity)]×100.

U937 cells = assay: Whole-cell cAMP elevation in U937 cells; format: cell-based, human; details: vs RS 14203 and (R)-rolipram; data not presented
[10] = system: eosinophils from guinea pigs; assay: Whole-cell cAMP elevation in guinea pig eosinophils; format: cell-based; details: vs RS 14203 and (R)-rolipram; data not presented
[11] = molecular target: T2, recombinant full-length human PDE IVa (rhPDEIVa) (Homo sapiens, UniProt P27815, M723I); assay: Phosphodiesterase Scintillation Proximity Assay, inhibition of soluble rhPDE IVa (100,000×g supernatant of transfected CHO-K1 cells); format: biochemical
T2 construct: a cDNA insert encoding for a full-length human PDE IVa enzyme; made in house; host or cells: CHO-K1 cells, stably transfected (also expressing the prostanoid IP receptor); 100,000xg supernatant of the sonicate
T2 sequence (P27815 whole entry M723I): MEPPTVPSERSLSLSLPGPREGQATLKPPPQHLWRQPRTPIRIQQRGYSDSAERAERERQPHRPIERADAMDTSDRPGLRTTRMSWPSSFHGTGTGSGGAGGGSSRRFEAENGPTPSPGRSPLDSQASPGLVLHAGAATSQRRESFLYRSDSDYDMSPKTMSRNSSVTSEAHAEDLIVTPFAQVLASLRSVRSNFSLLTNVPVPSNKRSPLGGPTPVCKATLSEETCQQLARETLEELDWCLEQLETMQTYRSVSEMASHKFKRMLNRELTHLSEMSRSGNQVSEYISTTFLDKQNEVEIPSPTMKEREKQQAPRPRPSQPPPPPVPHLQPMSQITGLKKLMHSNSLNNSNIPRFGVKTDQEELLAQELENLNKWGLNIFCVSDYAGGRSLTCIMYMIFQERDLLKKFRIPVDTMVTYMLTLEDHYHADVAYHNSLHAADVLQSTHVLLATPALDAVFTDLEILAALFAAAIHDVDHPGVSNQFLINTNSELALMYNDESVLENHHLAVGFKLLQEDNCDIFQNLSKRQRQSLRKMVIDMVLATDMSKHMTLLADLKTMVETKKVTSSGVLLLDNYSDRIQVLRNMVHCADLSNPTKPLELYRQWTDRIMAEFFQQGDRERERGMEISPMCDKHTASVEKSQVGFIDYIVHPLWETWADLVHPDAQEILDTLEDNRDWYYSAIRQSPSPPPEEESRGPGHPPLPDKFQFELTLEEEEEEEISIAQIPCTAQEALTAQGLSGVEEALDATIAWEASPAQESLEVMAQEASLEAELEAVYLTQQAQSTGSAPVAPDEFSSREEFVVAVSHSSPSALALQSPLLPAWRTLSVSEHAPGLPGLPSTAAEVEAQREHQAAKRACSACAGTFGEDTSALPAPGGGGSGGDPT
Experimental: Inhibition of soluble rhPDEIVa by specific inhibitors was examined at 100 nM substrate. Enzyme activity was determined as described in Materials and Methods using the Amersham SPA beads that specifically bind 5'AMP.
Inhibition of soluble rhPDEIVa by specific inhibitors was examined in the presence of 5 mM to 100 mM MgCl2. Enzyme activity was determined as described in Materials and Methods using the Amersham SPA beads that specifically bind 5'AMP in the presence of […] cAMP substrate.

[12] = system: catalytic portion of PDE IV; details: UCR1 and UCR2 deleted; cited from earlier work; remark: listed apart in the source
FLAG PDE IVA = FLAG PDE IVA (Homo sapiens, UniProt P27815, M723I); details: 150 mM KCl with 3 mg/ml HSA vs HSA alone
FLAG PDE IVA, sequence (P27815 whole entry M723I): as above
Experimental: PDE activity was measured in a solution containing 50 mM Tris, pH 7.5; 10 mM MgCl2; 1 mM EDTA; and 100 nM (or indicated) 3H-cAMP ([…] final volume) in the presence of varying concentrations of inhibitor. The reaction mixture containing enzyme was incubated for 10 min at 30° C. in 96-well View Plates (PACKARD), and terminated by the addition of 50 μl Phosphodiesterase Scintillation Proximity Assay (SPA) Beads ([…]) containing 18 mM ZnSO4. The amount of 3H-cAMP hydrolysis was determined by counting the plates in a WALLAC 1450 μBeta LSC counter.

FLAG PDE IVAmet330 [13] = molecular target: T1, FLAG PDE IVAmet330; details: KCl and/or HSA
Target sequence in this assay (P27815 332-886 M723I limits assumed): as the sequence (P27815 332-886 M723I) above
Experimental: as §1, §2

SMILES: COc1ccc(C2CNC(=O)C2)cc1OC1CCCC1 (racemic) [rolipram]
- saturable high-affinity binding to truncated enzyme (FLAG PDE IVAmet330 [1]): fails to bind rolipram with high-affinity
- difference between measured Kd (binding) and IC50 (enzymatic) [2]: > 1000 fold
- inhibitory kinetics with respect to full-length PDE Iva ([3]; rolipram (racemic)): Mixed inhibitory kinetics
- concentrations inhibiting cAMP PDE activity (cAMP PDE): micromolar concentrations
- inhibitory kinetics with respect to substrate (PDE IVh6.1): simple competitive inhibitor
- rolipram-sensitivity of constitutive phosphodiesterase activity [4]: did not exhibit any rolipram-sensitivity
- sensitivity of truncated PDE IVa to inhibition (FLAG PDE IVAmet330 [5]; truncated, catalytically active enzyme): low sensitivity to inhibition by rolipram
- nausea in patients (patients): profound episodes of nausea in patients
- therapeutic window (patients): extremely narrow therapeutic window
- saturable high-affinity rolipram binding [6]: no detectable saturable high-affinity rolipram binding

SMILES: COc1ccc(C(=O)Nc2c(Cl)cncc2Cl)cc1OC1CCCC1 [RP 73401]
- class of binding sites [7]: single class of high-affinity binding sites

SMILES: COc1ccc([C@H](Cc2ccncc2)c2ccccc2)cc1OC1CCCC1 [CDP 840]
- relative potency at elevating whole-cell cAMP (human neutrophils): consistently less potent than RS 14203 and (R)-rolipram
- relative potency / response in elevating whole-cell cAMP ([8]; with PGI2): least potent of the compounds tested, and a maximal "plateau" response was not obtained
- relative potency at elevating whole-cell cAMP (HL-60 cells): consistently less potent than RS 14203 and (R)-rolipram
- pEC50 [9]: 6.50
- discrimination between high- and low-affinity states of the enzyme (FLAG PDE IVAmet330 [5]; truncated vs full-length enzyme): do not discriminate between the two affinity states of the enzyme
- relative potency at elevating whole-cell cAMP (U937 cells): consistently less potent than RS 14203 and (R)-rolipram
- relative potency at elevating whole-cell cAMP [10]: consistently less potent than RS 14203 and (R)-rolipram
- effect of increased salt / ionic strength on inhibitory potency (IC50) [11]: not substantially affected; also recorded: not appreciably affected; also recorded: not affected by an increase of ionic strength; also recorded: not affected by the increases in assay buffer ionic strength
- relative potency against recombinant full-length PDE IVa enzyme [11]: as potent as RS 14203 and more potent than (R)-rolipram
- pIC50 ([11]; read-out: IC50 for inhibition of soluble PDE IVa activity): 8.05

SMILES: COc1ccc([C@@H]2CNC(=O)C2)cc1OC1CCCC1 [(R)-rolipram]
- Hill co-effecient for inhibition of HPDE IV catalytic activity [3]: 0.43
- concentration required for inhibition of catalytic portion [12]: at least a micromolar concentration
- additional increase in enzyme sensitivity to (R)-rolipram (FLAG PDE IVA): 3 fold
- pEC50 ([8]; CHO-K1, with 10 μM PGI2 (b116 prints 10 FM), read-out: EC50 for elevating cellular cAMP): 6.31
- pEC50 ([9]; CHO-K1): 6.77
- effect of assay conditions on sensitivity of FLAG PDE IVAmet330 to (R)-rolipram (FLAG PDE IVAmet330 [13]): unaffected
- effect of assay solution osmolality on rolipram sensitivity of the enzyme [11]: no effect upon the rolipram sensitivity of the enzyme
- inhibition of cAMP hydrolytic activity in the stable clones [11]: completely inhibitable
